In patent publication US4690933A, “Pyridylvinyl-1H tetrazole having antihistamine activity” (priority 1984, dated 1987):
Where two headings read alike, the source gives them in different places. Values belong to the compound of their own block, whether it stands above or below them.

How the values were obtained:
[1] = biological target: T1, histamine; longitudinal muscle from the intact ileum of guinea-pigs (Cavia porcellus, UniProt P31389); assay: In vitro antihistaminic activity: histamine concentration-response curves, isolated guinea-pig ileum longitudinal muscle (Schild plot); type: cell-based; settings: negative log of the concentration of antagonist which shifts the control histamine concentration-response curve 2X to the right, one hour incubation with test compound, 60 min
T1 construct: The longitudinal muscle was isolated from the intact ileum of guinea-pigs; from tissue; host or cells: longitudinal muscle of the ileum of guinea-pigs (Harley, male 250-400 g)
Description: A.Invitro antihistaminic activity: The longitudinal muscle was isolated from the intact ileum of guinea-pigs (Harley, male 250-400 g) and placed in an organ bath under 300 mg tension. After one hour of equilibration, cumulative concentration-response curves (Van Rossum, J. M., Arch. Int. Pharmacodyn. Ther. 143 299-330, 1963) to histamine wee obtained. Following washing, the tissues were incubated for one hour with the test compound and then a second histamine concentration-response curve was run. Shifts to the right of the agonist concentration-response curve produced by the antagonists were used to construct Schild plots (Arunlakshana, O. and Schild, H. O., Br. J. Pharmacol: 14, 48-58, 1959). Regression of Log (dr-1) on Log/B/, where dr is an equiactive response in the presence and absence of antagonist and /B/ is the molar concentration of antagonist, allowed an estimate of pA2, i.e. the negative log of the concentration of antagonist which shifts the control histamine concentration-response curve 2X to the right.
The antihistaminic activities of compounds of the present invention are detailed in table A below.

[2] = cited from earlier work
[3] = background statement, no test described; cited from earlier work
[4] = cited from earlier work; remark: listed apart in the source

T1 sequence (P31389 whole entry): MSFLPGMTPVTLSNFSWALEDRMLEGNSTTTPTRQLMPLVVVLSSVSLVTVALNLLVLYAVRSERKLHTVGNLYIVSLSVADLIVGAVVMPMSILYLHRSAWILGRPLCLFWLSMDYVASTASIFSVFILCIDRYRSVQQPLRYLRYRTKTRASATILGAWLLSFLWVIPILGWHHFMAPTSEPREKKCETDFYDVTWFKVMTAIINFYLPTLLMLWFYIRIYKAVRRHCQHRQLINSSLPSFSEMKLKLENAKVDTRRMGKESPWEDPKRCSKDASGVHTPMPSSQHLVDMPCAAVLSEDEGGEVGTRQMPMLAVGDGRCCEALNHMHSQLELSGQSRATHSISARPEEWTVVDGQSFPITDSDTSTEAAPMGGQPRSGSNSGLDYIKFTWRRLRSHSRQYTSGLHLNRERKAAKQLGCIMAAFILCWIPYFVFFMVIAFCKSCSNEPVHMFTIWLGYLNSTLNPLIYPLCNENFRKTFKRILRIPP

- pA2 [1]: 7.3
Structure (SMILES): O=S(=O)(O)c1cccc(C(CCN2CCCC2)c2ccccc2)c1 (stereo not drawn) [Example 3, 3-(1-phenyl-3-pyrrolidinopropyl)benzenesulphonic acid]

- pA2 [1]: 8.7
Structure (SMILES): Cc1ccc(/C(=C\CN2CCCC2)c2cccc(/C=C/c3nnn[nH]3)n2)cc1 [Example 1, 5-(E-6-[3-Pyrrolidino-1-(4-tolyl)prop-1E-enyl]-2-pyridylvinyl)-1H-tetrazole]

Structure (SMILES): CC(CN1c2ccccc2Sc2ccccc21)N(C)C (stereo not drawn) [promethazine]
- sedation or drowsiness ([2]; in some patients): cause sedation or drowsiness in some patients

Structure (SMILES): Cc1ccc(/C(=C\CN2CCCC2)c2ccccn2)cc1 [triprolidine, (E)-1-(4-methylphenyl)-1-(2-pyridyl)-3-pyrrolidinoprop-1-ene]
- antihistamine activity [3]: one of the most potent antihistamines available
- metabolism in man [4]: metabolized in man to (E)-1-(4-carboxyphenyl)-1-(2-pyridyl)-3-pyrrolidinoprop-1-ene
- sedation or drowsiness ([2]; human, in vivo): cause sedation or drowsiness in some patients

Structure (SMILES): COc1ccc(CN(CCN(C)C)c2ccccn2)cc1 [pyrilamine]
- sedation or drowsiness ([2]; human, in vivo): cause sedation or drowsiness in some patients

- pA2 [1]: 7.1
Structure (SMILES): O=S(=O)(O)c1cccc(/C(=C/CN2CCCC2)c2ccccc2)c1 [Example 2, (E)-3-(1-phenyl-3-pyrrolidinoprop-1-enyl)-benzenesulphonic Acid]

Structure (SMILES): O=C(O)c1ccc(/C(=C\CN2CCCC2)c2ccccn2)cc1 [(E)-1-(4-carboxyphenyl)-1-(2-pyridyl)-3-pyrrolidinoprop-1-ene]
- antihistamine activity [3]: little or no antihistamine activity
